Assay [1] relates to P. yoelii XL-infected mice. Particulars: for % parasitemia: day 4. The procedure:
Briefly, mice were inoculated 2 × 10^6 red blood cells from P. yoelii XL-infected mice by intraperitoneal (ip) injection. […] Tested compounds were prepared at appropriate doses in PBS. The control groups received PBS (n=3). The parasitemia was monitored daily by microscopic examination of Wright's-stained thin-blood smears. Activity was calculated by microscopic counting of blood smears from day 4.

For assay [2], the system named is P. falciparum 3D7 cultures. Kind of assay: microbe, parasite or virus in culture. As to conditions: Plasmodium falciparum, 3D7, 48 h. As for the experimental part: Parasitemia of P. falciparum 3D7 cultures was adjusted to 1.5% with more than 90% of parasites at ring stage after sorbitol synchronization. 98 µL of this Plasmodium culture was plated in 96-well plates and incubated in the presence of phosphate-buffered saline (PBS) solutions of the free drugs or of polymer/drug conjugates (ISA 23-PQ obtained in Example3; AGMA1-PQ obtained in Example 4,; ISA 23-CQ obtained in Example 3; AGMA1-CQ obtained in Example 4) for 48 h at 37°C under a gas mixture of 92% N2, 5% CO2, and 3% O2. Parasitemia was determined by microscopic counting of blood smears, or by FACS. Table 2. Effect of free primaquine, ISA23-PQ and AGMA1-PQ on the growth of P. falciparum. The polymers were added to P. falciparum cultures at the ring stage, and incubated for 48 h before determining parasitemia.

The test system of assay [3] is P. yoelii-infected mice. Particulars: oral, 100 mg kg^-1; cited from earlier work.
Assay [4] concerns P. berghei-infected mice. Particulars: single intravenous dose of 1 mg kg^-1, free drug; cited from earlier work.

Like-named read-outs stand apart in the source and are kept apart here.

We go through four molecules from EP2732821A1, “Amphoteric polyamidoamines in the treatment of malaria” (Universita' Degli Studi Di Milano, priority 2012, dated 2014).

As usually defined, the inhibition is the relative decrease from the control value, in per cent. Higher therefore signals a response far below the control.

Take `CCN(CC)CCCC(C)Nc1ccnc2cc(Cl)ccc12` (centres unmarked) [CQ soluble, chloroquine]: the “% parasitemia” value in assay [1] (chloroquine 1 mg/kg per day ip for 4 days) is given as 37.7%. Moreover, the “% parasitemia” value in assay [1] (chloroquine 2.5 mg/kg) stood at 20.1%. Besides, in assay [1] (intraperitoneal 4 × 1 mg kg^-1 doses of CQ, free CQ at the same or even a larger amount), the “elimination of parasitemia and cure of the animals” value is “unable to eliminate parasitemia or cure the animals”. In assay [2], this molecule registered an inhibition at 0.0026 µg/mL of 8.9%, an inhibition at 0.00515 µg/mL of 22.6%, an inhibition at 0.0103 µg/mL of 72.9% and an inhibition at 0.0206 µg/mL of 82.1%. In assay [2], the inhibition at 0.0414 µg/mL was found to be 85.9% and the inhibition at 0.0824 µg/mL turned out to be 86.4%.
In assay [2], `COc1cc(NC(C)CCCN)c2ncccc2c1` (centres unmarked) [PQ soluble, primaquine] registered an inhibition at 0.44 µg/mL of 6.9%, an inhibition at 0.88 µg/mL of 40.9%, an inhibition at 1.76 µg/mL of 53.9% and an inhibition at 3.52 µg/mL of 80.3%. Besides, in assay [2], at 7.04 µg/mL the inhibition was 86.6% and 14.1 µg/mL produced 88.2% inhibition.
For `COc1cc(/C=C/C(=O)CC(=O)/C=C/c2ccc(O)c(OC)c2)ccc1O` [curcumin], in assay [3], the animals cured entry is listed as “one third”.
As to `CCCCN(CCCC)CCC(O)c1cc2c(Cl)cc(Cl)cc2c2cc(C(F)(F)F)ccc12` (centres unmarked) [halofantrine], in assay [4], the “arrest of infection and survival” value is recorded as “unable to arrest the infection or to prolong the survival of the animals”.
